From patent US5380759A, “Methyl N-[6-(3,4,5-trimethoxybenzloxy)imidazo[1,2-b]pyridazin-2-zyl]carbamate used to treat leukemia” (priority 1987, dated 1995)

Key:
P388/Cis--Pt = assay: In vivo activity against drug resistant tumour P388/Cis-Pt; design: species or system mouse; conditions: optimum dose 10.0 mg/kg
P388/ActD = assay: In vivo activity against drug resistant tumour P388/ActD; design: species or system mouse; conditions: optimum dose 12.5 mg/kg
Description: (§1) CD2-F1 mice, of the same sex, weighing within a 3 gram range surrounding 20 g, are used for this test. Control and test animals are injected intraperitoneally with a suspension of 10^6 viable P388/O tumour cells on day 0. In each test several dose levels which bracket the LD20 for the compound are evaluated; each dose level group contains 6 animals. The test compounds are prepared either in physiologic saline containing 0.05% Tween 80 or distilled water containing 5% dextrose and are administered intraperitoneally on days 1,5 and 9 relative to tumour implant. Doses are on a mg/kg basis according to individual animals' body weights. The day of death for each animal is recorded and the median day of death identified for each group. The difference between the median survival time for treated and control groups is expressed as a percentage increase in life span (% ILS).
(§2) E. Activity Against Drug-Resistant Tumours
(§3) Using a similar procedure to the Lymphocytic Leukaemia P388/O test, the compound of Example 1 was evaluated against P388/O tumours which had been made resistant to the following standard, clinically used anti-tumour agents: […]

[1] = tested on: WiDr human colon adenocarcinoma cells; assay: In vitro activity against human tumour cell line WiDr (proliferation); format: cell-based; conditions: 96 h, MTT, read-out: IC50
Description: (§4) Cells from the human tumour cell lines DLD-1, HCT-116, WiDr and A549 are exposed to serially diluted concentrations of test compounds over a 96 hour period in culture. The ability of such cells to proliferate over the test period is determined.
(§5) Cells in log growth are plated into 96 well multiwell tissue culture dishes in 100 μl/well of RPMI 1640 culture medium supplemented with 10% foetal calf serum, antibiotics and test compound. All compounds are formulated initially at appropriate concentrations in DMSO, the final concentrations in this solvent being twenty times that required in the plate. A final 1 in 10 dilution in complete medium is then made before adding 100 μl to each well of the plate. All compounds are evaluated at concentrations ranging serially in four fold decrements from a top concentration some four fold greater than that already known to inhibit the proliferation of cells from the mouse lymphoid neoplasm, P388D1 by about 80 to 90 percent in a primary proliferative assay.
(§6) After 96 hours the proliferation of cells exposed to test compound is compared with control untreated cells by one of two methods:
b) 20 μl of MTT (5 mg/ml in PBS) is added to each well. After an incubation period of 4 hours the medium from each well is aspirated and replaced with 200 μl DMSO to dissolve the formazan crystals formed. Absorbances are read by an ELISA plate spectrophotometer at a wavelength of 540 nm. The IC50 is defined as that concentration of drug which decreases absorbance to 50% of that in control (drug-free) cultures. This method is used for the WiDr, HCT-116 and A549 cell lines.

B16 = assay: In vivo activity against murine tumour B16; design: species or system mouse
Description: as §1
G. In vivo activity of the compound of Example 1 against murine tumours
Using a similar procedure to the Lymphocytic Leukaemia P388/O test the compound of Example 1 was evaluated against the murine tumours B16, L1210 and M5076. A suspension of 10^6 tumour cells is implanted intraperitoneally into control and test animals on day zero. B16 tumour cells are administered intraperitoneally as a 1:10 Brei of cells on day zero. […] The day of death for each animal is recorded and the %ILS (percentage increase in life-span) calculated.

[2] = tested on: DLD-1 human colon carcinoma cells; assay: In vitro activity against human tumour cell line DLD-1 (proliferation); format: cell-based; conditions: DLD-1, 96 h, methylene blue, read-out: IC50
Description: as §4, §5, §6
a) Culture supernatants are aspirated and cells fixed and stained by adding a solution of methylene blue (5 g per liter of 50% ethanol: water, 100 μl/well). After 30 minutes at room temperature unbound stain is washed off by immersing plates in water. Stained cells are solubilised overnight using 1% Sarkosyl (Sigma) in phosphate-buffered saline (100 μl/well). Absorbances are read by an ELISA plate spectrophotometer at a wavelength of 620 nm. The IC50 is defined as that concentration of drug which decreases absorbance to 50% of that in control (drug-free) cultures. This method is used for the DLD-1 cell line.

LD20 (Mouse) = format: in vivo; conditions: i.p. days 1, 5 and 9, CD2-F1 mice, observed up to 14 days
P388/CPA = assay: In vivo activity against drug resistant tumour P388/CPA; design: species or system mouse; conditions: optimum dose 12.5 mg/kg
P388 D1 cells = assay: P388 D1 colony-forming assay; format: cell-based; conditions: Mus musculus, P388D1; 24 h exposure, 14 days colony growth; read-out: IC50 colony formation
Description: B) P338D1 Colony-forming Assay
In this assay, cells from an in vitro-adapted line of the mouse lymphoid neoplasm, P388 are first exposed to serially diluted concentrations of test compound over a 24 hour period in culture. Thereafter, the ability of such treated cells to form discrete colonies over a 14 day period after resuspension in a semi-solid drug-free medium is determined.
Initially cells in log growth are plated into individual 25 cm^2 tissue culture flasks each containing a final volume of 5 mls of Hepes buffered RPMI 1640 culture medium supplemented with 10 percent foetal calf serum, antibiotics and test compound. All compounds are formulated initially at appropriate concentrations in DMSO, 25 microliters of which is then added to each flask. All compounds are evaluated at concentrations ranging serially in four fold decrements from a top concentration some four fold greater than that already known to inhibit the proliferation of these cells by about 80 to 90 percent in the primary proliferative assay.
After 24 hrs exposure to the test compound the cells are counted and a known number of live cells transferred to a 15 ml centrifuge tube to which 4 mls of a 0.25 percent low temperature gelling agarose solution in complete RPMI tissue culture medium is then added. After 13 days incubation at 37° C., 1 ml of 1% p-Iodonitrotetrazolium violet is added to the top of each tube and allowed to permeate through the agarose for a further 24 to 48 hrs. This dye is metabolised by living cells to produce an insoluble red crystalline product which facilitates counting of the colonies. Samples are taken from each tube and the number of colonies containing a minimum of 50 cells is determined. The concentration of compound necessary to inhibit colony formation by 50 percent relative to that of control cells incubated under identical conditions but in the absence of the test compound is determined.

P388/VCR = assay: In vivo activity against drug resistant tumour P388/VCR; design: species or system mouse; conditions: optimum dose 12.5 mg/kg
Description: as §1, §2, §3

strains of P388 = assay: In vivo activity against strains of P388 resistant to major clinically used anti-tumour agents; design: species or system mouse; conditions: resistant to cyclophosphamide, methotrexate, actinomycin D, vincristine, adriamycin, 5-fluorouracil, cis-platinum, bis-chloronitrosourea and amsacrine
Description: as §1, §2, §3

Structure (SMILES): COC(=O)Nc1cn2nc(OCc3cc(OC)c(OC)c(OC)c3)ccc2n1 [Example 1, Methyl N-[6-(3,4,5-trimethoxybenzyloxy)imidazo[1,2-b]pyridazin-2-yl]carbamate]
- 60 Day Survivors (P388/Cis--Pt): 1/6
- % ILS (P388/Cis--Pt): +50%
- 60 Day Survivors (P388/ActD): 1/6
- % ILS (P388/ActD): +109%
- IC50 [1]: 30 nM
- Mean % ILS (±SEM) (B16; 5 mg/kg i.p. days 1, 5 and 9, 3 expts): 69 (±4) %
- activity in vivo against B16 melanoma (B16; in words): good activity
- IC50 [2]: 11.6 nM
- LD50 (LD20 (Mouse)): 20 to 30 mg/kg
- 60 Day Survivors (P388/CPA): 1/6
- % ILS (P388/CPA): +150%
- IC50 (P388 D1 cells): 13.2 nM
- 60 Day Survivors (P388/VCR): 3/6
- % ILS (P388/VCR): +145%
- activity in vivo against resistant strains of P388 (strains of P388): good activity in vivo
